This is an account of results in patent US8765787B2, “Methods of treatment of xerophthalmia with self-preserving ocular formulations of norketotifen” (Bridge Pharma, Inc., priority 2008, dated 2014).

Data set [1] can be described thus: Solubility of norketotifen (saturated solutions, HPLC). In kind it is physicochemical. The following applies: for solubility: thermodynamic from solid. How it is done:
Saturated solutions of norketotifen were prepared at room temperature by stirring, overnight sonication and filtering of the saturated supernatant solutions. An HPLC method for the determination of concentrations of norketotifen was developed:
The HPLC system was a HP 1050 with a variable wavelength detector. […] The relative standard deviation was approximately 0.3 percent for the main peak area.

Data set [2] relates to human granulocytes (buffy coat). Briefly: Inhibition of histamine release from granulocytes (A23187-induced granulocyte activation). The following applies: for IC50: 20 min, A23187 (5 μM), 20 min/37° C. In kind it is cell-based. How it is done:
In the present studies, effects on granulocyte activation was studied as inhibition of histamine release from human granulocytes (buffy coat) by norketotifen. The method is a modification of the method described by Nolte, H. et al., 1988. Granulocytes were obtained from human volunteers and mediator release was induced by incubation (20 min/37° C.) with the calcium ionophore A23187 (5 μM) in the presence or absence of a test article. Histamine was selected as an indicator for mediator release because of the ease with which histamine can be analyzed, using commercially available kits. The test articles were evaluated, in duplicate, at five concentrations and IC50-values were calculated.
The calcium ionophore A23187 was used to increase intracellular calcium concentration of the granulocytes.

The subject of the next data set is rabbit eyes. Description: Ocular irritation test. Type of data set: in vivo, New Zealand White rabbits. The following applies: excipient-free solution 0.0345% in water or saline; rabbit eye, seven instillations of 0.1 ml. As to the method: New Zealand White rabbits, weighing 2 to 4 kilograms were used. Test formulation, in volumes of 0.1 ml were instilled into the conjunctival sac of six rabbit eyes of groups. Said volume of each formulation was repeatedly instilled every 30 minutes for 3 hours (a total of seven instillation into the eyes of rabbits. Ocular irritation was scored according to both Draize et al., 1944 and Kay and Calandra, 1962. Scorings were performed before each instillation and 30 minutes, 3 hours and 24 hours after the last instillation.
The formulations of norketotifen in Table 7 were prepared and tested and the results were compared with irritation by norketotifen in excipient-free solutions. […] In the present study, norketotifen HF was dissolved to an intended concentration of 0.276 percent in the various solutions, using stirring and over-night sonication at room temperature. After sonication, all solutions were filtered through a 0.45 μm non-pyrogenic MILLEX® HV filter unit before being used for ocular tests. Thus, all of the solutions used for the ocular irritation tests in Table 7 contained the highest possible concentrations of norketotifen HF.
Solutions of norketotifen were similarly prepared in excipient-free solutions containing only norketotifen HF 0.0345 percent by weight, dissolved in water or in saline, and filtered as described above. […]

Data set [3] can be described thus: Stability of norketotifen formulations. In kind it is physicochemical. As to conditions: pH 6.5; accelerated testing (55° C.). How it is done:
Stability of norketotifen formulations was studied after incubation at various temperatures, acidity and time intervals. The concentrations of norketotifen were measured after incubation periods of various lengths.

The target in the next data set is T1, H-1 (Rattus norvegicus, UniProt P31390).
T1 construct: two intradermal injections of histamine; from tissue; host or cells: dorsal skin of live male rats (in vivo)
T1 sequence (P31390 whole entry): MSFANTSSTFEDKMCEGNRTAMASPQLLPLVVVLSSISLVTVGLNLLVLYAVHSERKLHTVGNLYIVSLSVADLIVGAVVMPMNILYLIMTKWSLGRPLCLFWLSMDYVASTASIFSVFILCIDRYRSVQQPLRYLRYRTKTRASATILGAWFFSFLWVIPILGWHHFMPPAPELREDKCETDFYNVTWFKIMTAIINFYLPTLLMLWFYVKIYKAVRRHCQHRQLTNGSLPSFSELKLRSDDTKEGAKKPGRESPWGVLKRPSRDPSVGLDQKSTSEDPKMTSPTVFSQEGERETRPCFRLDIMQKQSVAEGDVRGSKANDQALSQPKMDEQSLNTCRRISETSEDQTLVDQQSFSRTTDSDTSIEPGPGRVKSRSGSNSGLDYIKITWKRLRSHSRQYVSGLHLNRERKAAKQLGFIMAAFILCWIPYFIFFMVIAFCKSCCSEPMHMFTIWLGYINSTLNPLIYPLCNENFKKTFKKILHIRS
Description: Antihistaminic (H-1) activity in vivo after oral administration (histamine wheal). Also on record: species or system rats. As to conditions: for Histamine (wheal area): 60 min before intradermal histamine; for Saline (wheal area): intradermal histamine vehicle. How it is done: Male rats (150-200 g) were starved overnight and twelve hours after dorsal depilation, the animals were dosed orally with the test compound(s). Four dorsal test areas were marked with permanent ink. Exactly 60 min after the dosing of the test compound, two intradermal injections of histamine (50 microliter; 1.0 mg/ml of histamine di-HCl) were performed, one on each side on the back of the animal. Two intradermal injections of the vehicle for the histamine solution were also performed. Evans blue dye (20 mg/kg) was injected iv 1 minute prior to the intra-dermal injections of histamine and the histamine vehicle. Twenty minutes were allowed for the wheal response to fully develop, whereupon the animals were euthanized and the dorsal skin containing the intradermal wheals was deflected. The blue spotted areas were measured in square millimeters and the duplicate vehicle wheal responses were averaged. […] The inhibition was calculated in percent difference from the corresponding vehicle baseline value.

Setting [4] is: water, read-out: water solubility.

≈ marks a conversion by molar mass, not a printed value. Where two headings read alike, the source gives them in different places.

For the compound `O=C1Cc2ccccc2C(=C2CCNCC2)c2ccsc21` [norketotifen FB], the “solubility of free base in non-aqueous solvents” value in data set [1] (propylene glycol, glycerin, ethanol and isopropyl alcohol) is “can be dissolved”.
As usually defined, the solubility is how much of the substance goes into solution per volume. The IC50 is the midpoint of a concentration-inhibition curve. Consider `CN1CCC(=C2c3ccccc3CC(=O)c3sccc32)CC1` [ketotifen], for which the solubility in data set [1] (setting [4]) was roughly 12.5 mg/mL (≈ 40.4 mM). In addition, the IC50 in data set [2] turned out to be 91 µM.
What is called inhibition is the change of the read-out against control, counted positive when it falls. On to `O=C1Cc2ccccc2C(=C2CCNCC2)c2ccsc21` [norketotifen], for which, in the data set with rabbit eyes, the “ocular irritation (Draize; Kay and Calandra scoring)” value was “caused irritation”. For the same compound, the “soluble in polyethylene glycol (PEG 300)” value in data set [1] (PEG 300) is given as “up to 0.15 percent w/w”. Moreover, the solubility in data set [1] (pH 8.6, aqueous buffer, read-out: solubility of norketotifen in water) was 2.1 mg/mL (≈ 7.11 mM); in data set [1] (pH 8.75, aqueous buffer, read-out: solubility of norketotifen in water), roughly 1 mg/mL (≈ 3.39 mM); in data set [1] (propylene glycol, organic solvent or mixture, read-out: solubility of norketotifen in propylene glycol) it was roughly 10 mg/mL (≈ 33.9 mM); in data set [1] (setting [4]), roughly 2.16 mg/mL (≈ 7.31 mM). Further, the “soluble in propylene glycol” value in data set [1] (propylene glycol) is given as “up to 1.0 percent by weight”. For the same compound, in data set [1] (water), the “can be dissolved in water” value is reported as “up to 0.216 percent by weight”. In data set [2], this compound yielded an IC50 of 9.2 µM. In data set [2] (A23187-induced), the “activity relative to ketotifen in inhibiting granulocyte activation (anti-inflammatory)” value is “about ten times more potent than ketotifen”. For the same compound, the “stability in solution formulations” value in data set [3] is on record as “not stable”. Also, the inhibition at 1 mg/kg against H-1 (rat, po) was found to be 6%. The compound also registered an inhibition at 10 mg/kg at H-1 (rat, po) of 83%. The inhibition at 50 mg/kg against H-1 (rat, po) was determined as 100%. For the same compound, at H-1 (rats, oral), the “absorption after oral administration” value is given as “well absorbed”. The “antihistaminic potency relative to diphenhydramine” value at H-1 (rats, oral) is given as “more potent than the reference compound”. Moreover, the Histamine effect at H-1 (rats, oral, 1 mg/kg) is on record as 92 mm^2; at H-1 (rats, oral, 10 mg/kg) it was 17 mm^2; on H-1 (rats, oral, 50 mg/kg) it was 0 mm^2. Further, the “Histamine (wheal area)” value was found to be 114 ± 8 mm^2 at H-1 (rats, oral, 1 mg/kg); 39 ± 2 mm^2 on H-1 (rats, oral, 10 mg/kg); 10 ± 1 mm^2 on H-1 (rats, oral, 50 mg/kg). The “Saline (wheal area)” value at H-1 (rats, oral, 1 mg/kg) is 22 ± 1 mm^2; at H-1 (rats, oral, 10 mg/kg), 22 ± 1 mm^2; on H-1 (rats, oral, 50 mg/kg), 12 ± 1 mm^2. The “antihistaminic activity relative to ketotifen” value at H-1 (tested in vivo (Example 12)) is recorded as “about half of that of ketotifen”.
